From patent publication US8541575B2, “3,4-diarylpyrazoles as protein kinase inhibitors” (Nerviano Medical Sciences S.R.L., priority 2008, dated 2013)

Columns and labels:
Type in all cases: cell-based
[1] = tested on: p-MAPK (T202/Y204) in A375 human melanoma cells, having a mutated B-RAF; experiment: p-MAPK (T202/Y204) ArrayScan assay; conditions: A-375, treated 1.5 or 2 hours, p-MAPK cytoplasmatic fluorescence, read-out: Array Scan A375 IC50
Protocol: p-MAPK (T202/Y204) ArrayScan Assay
A375 human melanoma cells, having a mutated B-RAF, are seeded in 384-well poly-lysine coated plates (Matrix) at a density of 1000 cells/well with appropriate medium supplemented with 10% FCS and incubated for 16-24 hours. Cells are treated for 1.5 or 2 hours with increasing doses of compounds (starting dose 10 μM, dilution factor 2.5). At the end of the treatment cells are fixed with p-formaldehyde 3.7% for 15-30 min, then washed twice with D-PBS […] and permeabilized with D-PBS containing 0.1% Triton X-100 and 1% BSA (Sigma-Aldrich) for 15 minutes at room temperature (staining solution). Anti-phospho-MAPK (T202/Y204) monoclonal antibody E10 (Cell Signaling, cat. #9106) diluted 1:100 is added in staining solution and incubated for 1 hour at 37° C. After removal of the primary antibody solution, the anti-mouse Cy™2-conjugated (Green) secondary antibody (Amersham) diluted 1:500 in staining solution containing 2 μg/ml DAPI is added. The plate is incubated for 1 hour at 37° C., washed twice and then red with Cellomics' ArrayScan VTI (4 fields/well, CytoNucTrans algorithm).
The parameter “MEAN_RingAvgIntenCh2”, which measures the mean cytoplasmatic fluorescence intensity associated to p-MAPK staining, is reported as the final result.

[2] = tested on: human melanoma cells Mewo (with wild-type B-Raf); experiment: In vitro cell proliferation assay, Mewo; conditions: 72 hours treatment, cellular ATP readout
Protocol: (§1) In Vitro Cell Proliferation Assay
(§2) Exponentially growing human melanoma cells A375 (with a mutated B-RAF) and human melanoma cells Mewo (with wild-type B-Raf) were seeded and incubated at 37° C. in a humidified 5% CO2 atmosphere. After 24 hours, scalar doses of the compound were added to the medium and cells oncubated for 72 hours. At the end of treatment, cells were washed and counted. Cell number was determined by a cellular adenosine triphosphate monitoring system. Cell proliferation was compared to control cells and the concentration inhibiting cell growth by 50% was calculated.

[3] = tested on: human melanoma cells A375 (with a mutated B-RAF); experiment: In vitro cell proliferation assay, A375; conditions: A-375, 72 hours treatment, cellular ATP readout
Protocol: as §1, §2

| SMILES | IC50 [1] [nM] | IC50 [2] [nM] | IC50 [3] [nM] |
| --- | --- | --- | --- |
| O=C(Nc1ccc(C(F)(F)F)cc1)Nc1cccc(-c2n[nH]cc2-c2ccncc2)c1 [Cmpd. 1, 1-[3-(4-Pyridin-4-yl-1H-pyrazol-3-yl)-phenyl]-3-(4-trifluoromethyl-phenyl)-urea] | 930 | 8600 | 1020 |
| CC(C)(C)c1ccc(NC(=O)c2cccc(-c3n[nH]cc3-c3ccncc3)c2)cc1 [Cmpd. 4, N-(4-tert-Butyl-phenyl)-3-(4-pyridin-4-yl-1H-pyrazol-3-yl)-benzamide] | 1260 | 5840 | 2310 |
| O=C(Nc1cccc(-c2nn(CCF)cc2-c2ccncc2)c1)Nc1ccc(Cl)c(C(F)(F)F)c1 [Cmpd. 5, 1-(4-Chloro-3-trifluoromethyl-phenyl)-3-{3-[1-(2-fluoro-ethyl)-4-pyridin-4-yl-1H-pyrazol-3-yl]-phenyl}-urea] | 2090 | 6760 | 4310 |
| O=S(=O)(Nc1cccc(-c2n[nH]cc2-c2ccncc2)c1)c1ccco1 [Cmpd. 6, Furan-2-sulfonic acid [3-(4-pyridin-4-yl-1H-pyrazol-3-yl)-phenyl]amide] | 5470 | > 10000 | 7520 |
| O=S(=O)(Nc1cccc(-c2n[nH]cc2-c2ccncc2)c1)c1ccsc1 [Cmpd. 7, Thiophene-3-sulfonic acid [3-(4-pyridin-4-yl-1H-pyrazol-3-yl)-phenyl]-amide] | 5520 | > 10000 | 7380 |
| O=C(Nc1ccc(C(F)(F)F)cc1)Nc1cccc(-c2nn(CCO)cc2-c2ccncc2)c1 [Cmpd. 14, 1-{3-[1-(2-Hydroxy-ethyl)-4-pyridin-4-yl-1H-pyrazol-3-yl]-phenyl}-3-(4-trifluoromethyl-phenyl)-urea] | 2630 | > 10000 | 6940 |
| O=C(Cc1ccc(C(F)(F)F)cc1)Nc1cccc(-c2n[nH]cc2-c2ccncc2)c1 [Cmpd. 16, N-[3-(4-Pyridin-4-yl-1H-pyrazol-3-yl)-phenyl]-2-(4-trifluoromethyl-phenyl)-acetamide] | 1340 | > 10000 | 2890 |
| O=S(=O)(Nc1ccc(F)c(-c2n[nH]cc2-c2ccncc2)c1F)c1ccsc1 [Cmpd. 19, Thiophene-3-sulfonic acid [2,4-difluoro-3-(4-pyridin-4-yl-1H-pyrazol-3-yl)-phenyl]-amide] | 830 | > 10000 | 3170 |
| O=S(=O)(Nc1ccc(F)c(-c2n[nH]cc2-c2ccncc2)c1F)c1ccco1 [Cmpd. 20, Furan-2-sulfonic acid [2,4-difluoro-3-(4-pyridin-4-yl-1H-pyrazol-3-yl)-phenyl]amide] | 5480 | > 10000 | 9140 |
| CCCS(=O)(=O)Nc1ccc(F)c(-c2n[nH]cc2-c2ccncc2)c1F [Cmpd. 21, Propane-1-sulfonic acid [2,4-difluoro-3-(4-pyridin-4-yl-1H-pyrazol-3-yl)-phenyl]-amide] | 1790 | > 10000 | 4280 |
| Cn1cc(-c2ccncc2)c(-c2cccc(NC(=O)Nc3ccc(C(F)(F)F)cc3)c2)n1 [Cmpd. 48, 1-[3-(1-Methyl-4-pyridin-4-yl-1H-pyrazol-3-yl)-phenyl]-3-(4-trifluoromethyl-phenyl)-urea] | 1790 | > 10000 | 3860 |
| CC(C)Cn1cc(-c2ccncc2)c(-c2cccc(NC(=O)Nc3ccc(C(F)(F)F)cc3)c2)n1 [Cmpd. 50, 1-[3-(1-Isobutyl-4-pyridin-4-yl-1H-pyrazol-3-yl)-phenyl]-3-(4-trifluoromethyl-phenyl)-urea] | 1120 | 5090 | 1900 |
| Cc1ccc(NC(=O)Nc2cccc(-c3n[nH]cc3-c3ccncc3)c2)cc1 [compound 8, 1-[3-(4-Pyridin-4-yl-1H-pyrazol-3-yl)-phenyl]-3-p-tolyl-urea] | 1450 | > 10000 | 4480 |
| O=C(Nc1ccc(Cl)cc1)Nc1cccc(-c2n[nH]cc2-c2ccncc2)c1 [compound 9, 1-(4-Chloro-phenyl)-3-[3-(4-pyridin-4-yl-1H-pyrazol-3-yl)-phenyl]-urea] | 4800 | > 10000 | 4100 |

Stronger by IC50 [1], values ahead:

| IC50 [1] [nM] | IC50 [2] [nM] | IC50 [3] [nM] | SMILES |
| --- | --- | --- | --- |
| 640 | > 10000 | 1400 | O=S(=O)(Nc1cccc(-c2n[nH]cc2-c2ccncc2)c1)c1cc(F)ccc1F [Cmpd. 2, 2,5-Difluoro-N-[3-(4-pyridin-4-yl-1H-pyrazol-3-yl)-phenyl]-benzenesulfonamide] |
| 560 | 8110 | 1380 | O=C(Nc1ccc(C(F)(F)F)cc1)Nc1cccc(-c2nn(CCF)cc2-c2ccncc2)c1 [Cmpd. 13, 1-{3-[1-(2-Fluoro-ethyl)-4-pyridin-4-yl-1H-pyrazol-3-yl]-phenyl}-3-(4-trifluoromethyl-phenyl)-urea] |
| < 40 | 9400 | 250 | CC(=O)Nc1cc(-c2c[nH]nc2-c2cccc(NC(=O)Nc3ccc(C(F)(F)F)cc3)c2)ccn1 [Cmpd. 17, N-[4-(3-{3-[3-(4-Trifluoromethyl-phenyl)-ureido]-phenyl}-1H-pyrazol-4-yl)-pyridin-2-yl]-acetamide] |
| 360 | > 10000 | 720 | O=S(=O)(Nc1ccc(F)c(-c2n[nH]cc2-c2ccncc2)c1F)c1cc(F)ccc1F [Cmpd. 18, N-[2,4-Difluoro-3-(4-pyridin-4-yl-1H-pyrazol-3-yl)-phenyl]-2,5-difluoro-benzenesulfonamide] |
| 750 | > 10000 | 2660 | CCOC(=O)n1cc(-c2ccncc2)c(-c2cccc(NC(=O)Nc3ccc(C(F)(F)F)cc3)c2)n1 [Cmpd. 47, 4-Pyridin-4-yl-3-{3-[3-(4-trifluoromethyl-phenyl)-ureido]-phenyl}-pyrazole-1-carboxylic acid ethyl ester] |
| < 10 | > 10000 | < 20 | CCn1cc(-c2ccncc2)c(-c2c(F)ccc(NS(=O)(=O)c3cc(F)ccc3F)c2F)n1 [Cmpd. 51, N-[3-(1-Ethyl-4-pyridin-4-yl-1H-pyrazol-3-yl)-2,4-difluoro-phenyl]-2,5-difluoro-benzenesulfonamide] |
| 20 | > 10000 | 330 | CCn1cc(-c2ccncc2)c(-c2c(F)ccc(NS(=O)(=O)c3ccccc3F)c2F)n1 [Cmpd. 57, N-[3-(1-Ethyl-4-pyridin-4-yl-1H-pyrazol-3-yl)-2,4-difluoro-phenyl]-2-fluoro-benzenesulfonamide] |
| 40 | > 10000 | 290 | CCn1cc(-c2ccncc2)c(-c2c(F)ccc(NS(=O)(=O)c3cccc(F)c3)c2F)n1 [Cmpd. 58, N-[3-(1-Ethyl-4-pyridin-4-yl-1H-pyrazol-3-yl)-2,4-difluoro-phenyl]-3-fluoro-benzenesulfonamide] |
| 540 | 7500 | 1630 | CCn1cc(-c2ccncc2)c(-c2cccc(NC(=O)Nc3ccc(C(F)(F)F)cc3)c2)n1 [compound 10, 1-[3-(1-Ethyl-4-pyridin-4-yl-1H-pyrazol-3-yl)-phenyl]-3-(4-trifluoromethyl-phenyl)-urea] |
| 230 | 7690 | 1130 | N#CCn1cc(-c2ccncc2)c(-c2cccc(NC(=O)Nc3ccc(C(F)(F)F)cc3)c2)n1 [compound 11, 1-[3-(1-Cyanomethyl-4-pyridin-4-yl-1H-pyrazol-3-yl)-phenyl]-3-(4-trifluoromethyl-phenyl)-urea] |
